Data on 72 molecules can be found in US10233195B2, “Anti-fibrotic pyridinones” (InterMune, Inc., priority 2014, dated 2019).

This assay has as its system TGF-b induced Endothelin-1 production. Description: ET-1 assay: inhibitory effect on TGF-b induced endothelin-1 production. The format is cell-based. To be noted: Homo sapiens, Fibroblast; fibroblasts, stimulant (TGFb, serum, LPA etc), ET-1 in media by ELISA, 4-parameter fit. Here is the method:
Assay of Inhibitory Effect on TGF-b Induced Endothelin-1 Production
Fibroblasts (primary human lung and dermal, HFL-1, 3T3 etc) are seeded in 96-well plates at ˜15000 cells/well and serum starved for 0-48 hours. After media exchange, compounds serially diluted in DMSO are added to the cells. After a brief incubation of ˜30 min, stimulants (TGFb, serum, LPA etc) are added followed by further incubation for 16-48 hours. Media is then harvested and stored frozen in plate format for later endothelin-1 (ET-1) determination by ELISA. Toxicity measurements are made using the ATPlite kit (Perkin-Elmer). ET-1 is quantified using an ELISA kit (R&D Systems). The amount of ET-1 produced in the assay wells are back-calculated using the ELISA standard. The ability of a compound to inhibit ET-1 production is typically analyzed by fitting dose-response curves to a 4-parameter logistic function to obtain an EC50 value. A measure of cytotoxicity (CC50) is likewise reported from the same experiment using the ATPlite data.
Compounds of some embodiments were prepared according to synthetic methods described herein and assay data obtained for EC50 against ET-1. The assay data obtained is presented in Table 2, in which A=less than 50 μM, B=greater than or equal to 50 μM and less than or equal to 200 μM; and C=greater than 200 μM.
(In general: In an ELISA, binding on a coated surface is turned into a signal by an enzyme label.)

Turning to `CCOc1ccc(-n2cc(-c3cnn(C)c3)c(N(C)Cc3ccccc3)cc2=O)c(C)c1` [Compound 705], the EC50 – broadly, the concentration giving half of the maximal effect – was below 50 µM. The result for `COc1ccc(-n2cc(-c3cccc(Cl)c3)ccc2=O)cc1` [Compound 315] reads below 50 µM; that for `Cn1cc(-c2cn(-c3ccc(OC(F)(F)F)cc3)c(=O)c3c2CCCC3)cn1` [Compound 33], below 50 µM; that for `O=c1c2nc[nH]c2c(-c2ccc(F)cc2)cn1-c1ccc(OC(F)(F)F)cc1` [Compound 56], above 200 µM. As to `O=C(NCc1ccccc1)c1cc(=O)n(-c2ccc(OC(F)(F)F)cc2)cc1-c1ccc(F)cc1` [Compound 118], the EC50 is above 200 µM. Consider `Cn1cc(-c2cn(-c3ccc(Cl)cc3)c(=O)cc2Oc2ccccc2)cn1` [Compound 534], for which the EC50 was below 50 µM. With `Cn1cc(-c2c[nH]c(=O)c3[nH]nnc23)cn1` [Compound 623], the EC50 was above 200 µM. For the molecule `CCOc1ccc(CNc2cc(=O)n(-c3ccc(OC(F)(F)F)cc3)cc2-c2cnn(C)c2)cc1` [Compound 530], the EC50 was below 50 µM. The result for `Cn1cc(-c2cn(-c3ccc(OC(F)(F)F)cc3)c(=O)cc2OCCN2CCOCC2=O)cn1` [Compound 150] reads 50 to 200 µM. The molecule `Cc1cc(=O)n(-c2ccc(OC(F)(F)F)cc2)cc1-c1ccncc1` [Compound 242] registered an EC50 above 200 µM. With `COc1cccc(-n2cc(-c3cccc(Cl)c3)ccc2=O)c1` [Compound 319] the figure was below 50 µM; with `COc1ccc(-c2ccc(=O)n(-c3ccccc3F)c2)cc1` [Compound 312], above 200 µM; with `Cc1cc(=O)n(-c2ccc3c(c2)OCCO3)cc1-c1cnn(C)c1` [Compound 222], above 200 µM. With `O=c1c2cccnc2c(-c2ccc(F)cc2)cn1-c1ccc(OC(F)(F)F)cc1` [Compound 42] the figure was above 200 µM; with `Cc1cc(=O)n(-c2cccc(C(F)(F)F)c2)cc1-c1cnn(C)c1` [Compound 226], above 200 µM; with `Cn1cc(-c2cnc(=O)n(-c3ccc(OC(F)(F)F)cc3)c2)cn1` [Compound 364], above 200 µM. As to `Cn1cc(-c2cn(-c3ccc(OC(F)(F)F)cc3)c(=O)cc2NCc2ccc(C#N)cc2F)cn1` [Compound 527], the EC50 is below 50 µM. In the case of `Cn1cc(-c2cn(-c3ccc(OC(F)(F)F)cc3)c(=O)cc2OCCN2CCCC2)cn1` [Compound 145], the EC50 was in the range of 50 to 200 µM.

`Cc1cc(=O)n(-c2ccccc2F)cc1-c1cnn(C)c1` [Compound 230] showed an EC50 above 200 µM. On to `Cc1ccc2c(c1)CC(=O)N2c1ccc(OC(F)(F)F)cc1` [Compound 82], for which the EC50 was above 200 µM.

Molecule `Cn1cc(-c2cn(-c3ccc(OC(F)(F)F)cc3)c(=O)cc2C(=O)O)cn1` [Compound 158] had an EC50 above 200 µM. The result for `Cn1cc(-c2cn(-c3ccc(OC(F)(F)F)cc3)c(=O)c3c2ccn3CCO)cn1` [Compound 614] reads below 50 µM; that for `Cc1n[nH]c(C)c1-c1ccc(=O)n(-c2ccc(OC(C)C)cc2)c1` [Compound 382], 50 to 200 µM; that for `CCn1c(=O)oc2ccc(-c3cn(-c4ccc(OC(F)(F)F)cc4)c(=O)cc3C)cc21` [Compound 554], above 200 µM. The result for `CCOc1ccc(-n2cc(-c3cn[nH]c3)c3c(c2=O)CCCC3)c(C)c1` [Compound 36] reads below 50 µM; that for `CCCCOC(=O)n1cc(-c2ccc(=O)n(-c3ccccc3)c2)cn1` [Compound 74], 50 to 200 µM; that for `O=c1ccc(Br)cn1-c1cccc(C(F)(F)F)c1` [Compound 268], above 200 µM. Regarding `O=c1ccc(-c2cccc(Cl)c2)cn1-c1cccc(F)c1` [Compound 320], the EC50 is below 50 µM. `COc1cccc(-n2cc(Br)ccc2=O)c1` [Compound 266] registered an EC50 above 200 µM. `Cn1cc(-c2cn(-c3ccc(OC(F)(F)F)cc3)c(=O)c3nn(CCF)nc23)cn1` [Compound 679]: the EC50 is below 50 µM. `O=c1cc(Oc2ccccc2)c(-c2ccc(F)cc2)cn1-c1ccc(OC(F)(F)F)cc1` [Compound 102] displayed an EC50 above 200 µM. With `COCCOc1ccc(-n2cc(-c3ccc(F)cc3)c(C)cc2=O)cc1` [Compound 23] the figure was 50 to 200 µM; with `CC(C)n1nnc2c(-c3cnn(C)c3)cn(-c3ccc(OC(F)(F)F)cc3)c(=O)c21` [Compound 676], below 50 µM; with `CN1CCC(Oc2cc(=O)n(-c3ccc(OC(F)(F)F)cc3)cc2-c2cnn(C)c2)CC1` [Compound 151], below 50 µM.

For `O=c1c2c(c(-c3cn[nH]c3)cn1-c1ccc(OC(F)(F)F)cc1)CCCC2` [Compound 37], the EC50 was 50 to 200 µM. The result for `Cn1cc(-c2cn(-c3ccc(Cl)cc3)c(=O)c3nccnc23)cn1` [Compound 397] reads above 200 µM. With `O=C(Nc1cc(=O)n(-c2ccc(OC(F)(F)F)cc2)cc1-c1ccc(F)cc1)Oc1ccccc1` [Compound 113] the figure was above 200 µM; with `CCOc1ccc(-n2cc(-c3cnn(C)c3)c(NCc3ccncc3)cc2=O)c(C)c1` [Compound 700], 50 to 200 µM; with `Cc1cc(=O)n(-c2ccc(Cl)cc2)cc1-c1ccc2ocnc2c1` [Compound 422], above 200 µM. As for `O=c1ncc(-c2ccc(F)cc2)cn1-c1ccc(OC(F)(F)F)cc1` [Compound 357], the EC50 is above 200 µM. As for `COc1ccc(-c2ccc(=O)n(-c3ccc(Cl)cc3)c2)cc1` [Compound 303], the EC50 lay within 50 to 200 µM. `Cc1cc(=O)n(-c2ccc(OC(F)(F)F)cc2)cc1-c1cccnc1` [Compound 241] gave an EC50 above 200 µM.

`CC(C)n1cc(-c2cn(-c3ccc(OC(F)(F)F)cc3)c(=O)c3c2ncn3C)cn1` [Compound 673] yielded an EC50 below 50 µM. The result for `O=c1ccc(C(F)(F)F)cn1-c1ccccc1Cl` [Compound 281] reads above 200 µM; that for `Cc1cc(=O)n(-c2ccccc2C)cc1-c1ccc(F)cc1` [Compound 214], 50 to 200 µM. With `Cc1nc2c(-c3cnn(Cc4ccccc4)c3)cn(-c3ccc(OC(F)(F)F)cc3)c(=O)c2s1` [Compound 586] the figure was below 50 µM.

For `O=c1ccc(-c2ccc(F)cc2)cn1-c1cccc(C(F)(F)F)c1` [Compound 289], the EC50 was in the range of 50 to 200 µM.

Turning to `O=c1cc(NCc2ccccc2)c(-c2ccc(F)cc2)cn1-c1ccc(OC(F)(F)F)cc1` [Compound 89], the EC50 was above 200 µM. Molecule `CCOc1ccc(-n2cc(-c3cccc(F)c3)c(C)cc2=O)c(C)c1` [Compound 193] had an EC50 of 50 to 200 µM. Take `Cc1nc2c(-c3cn[nH]c3)cn(-c3ccc(OC(F)(F)F)cc3)c(=O)c2s1` [Compound 587]: the EC50 is below 50 µM. The result for `Cc1cc(=O)n(-c2ccc(Cl)cc2)cc1-c1ccc2scnc2c1` [Compound 421] reads 50 to 200 µM. With `CC(=O)c1ccc(=O)n(-c2ccccc2Cl)c1` [Compound 19] the figure was 50 to 200 µM; with `COCCOc1ccc(-n2cc(-c3cnn(C)c3)c(Oc3ccccc3)cc2=O)cc1` [Compound 540], below 50 µM; with `CCc1cc(=O)n(-c2ccc(OC(F)(F)F)cc2)cc1-c1ccc(F)cc1` [Compound 199], 50 to 200 µM.

For the molecule `O=c1ccc(-c2ccccc2)cn1-c1cccc(F)c1` [Compound 296], the EC50 was above 200 µM. With `Cc1cc(=O)n(-c2ccc(OC(F)(F)F)cc2)cc1-c1cccc2c1N(C)C(=O)CO2` [Compound 427] the figure was above 200 µM; with `O=c1ccc(-c2ccccc2)cn1-c1ccncc1` [Compound 299], above 200 µM.

The molecule `Cc1ccc(=O)n(-c2ccccc2)n1` [Compound 359] returned an EC50 above 200 µM. As for `COCCOc1ccc(-n2cc(-c3cnn(C)c3)c(C)cc2=O)cc1` [Compound 25], the EC50 was above 200 µM.

Molecule `CCCNC(=O)Nc1cc(=O)n(-c2ccc(OC(F)(F)F)cc2)cc1-c1ccc(F)cc1` [Compound 115] returned a concentration for a half-maximal effect (EC50) above 200 µM. With `Cc1cc(=O)n(-c2cccc(OC(F)(F)F)c2)cc1-c1ccccc1` [Compound 166] the figure was below 50 µM. The result for `Cc1ccc(=S)n(-c2cccc(F)c2)c1` [Compound 338] reads above 200 µM; that for `CCn1c(=O)oc2c(-c3cn(-c4ccc(OC(F)(F)F)cc4)c(=O)cc3C)cccc21` [Compound 556], above 200 µM.

`O=c1ccc(C(F)(F)F)cn1-c1ccc(OC(F)(F)F)cc1` [Compound 275] yielded an EC50 above 200 µM. Molecule `CCOc1ccc(-n2cc(-c3ccc(F)cc3)ccc2=O)c(C)c1` [Compound 438] showed an EC50 above 200 µM.

Consider `O=c1cc(OCCN2CCCC2)c(-c2ccc(F)cc2)cn1-c1ccc(OC(F)(F)F)cc1` [Compound 93], for which the EC50 is below 50 µM. For `CC(C)Oc1ccc(-n2cc(-c3ccc(F)cc3)ccc2=O)cc1` [Compound 288], the EC50 was 50 to 200 µM. With `O=c1c2c(c(-c3ccc(F)cc3)cn1-c1ccc(OC(F)(F)F)cc1)NCCC2` [Compound 45] the figure was above 200 µM.

The molecule `CC(=O)n1cc(-c2ccc(=O)n(-c3ccccc3)c2)cn1` [Compound 67] showed an EC50 above 200 µM. In turn, `CC(=O)Nc1cc(=O)n(-c2ccc(OC(F)(F)F)cc2)cc1-c1cnn(C)c1` [Compound 141] yielded an EC50 above 200 µM.

As for `O=c1ccc(C2CCCCC2)cn1-c1ccccc1` [Compound 66], the EC50 lay in the range of 50 to 200 µM. Take `COc1ccc(-n2cc(C)ccc2=S)cc1` [Compound 332]: the EC50 was above 200 µM.
